Source: article PMC10905675, “INX-315, a Selective CDK2 Inhibitor, Induces Cell Cycle Arrest and Senescence in Solid Tumors” (Cancer Discovery, 2023)

What was measured:
[1] = test system: parental MCF7 and T47D cells; assay: Cell cycle flow cytometry; assay type: cell-based; conditions: abemaciclib 500 nmol/L, 7 days
Description: One hour prior to endpoint, either 10 µmol/L BrdU or EdU was applied to the cells. Cells were stained using the Near-IR Fixable Viability Stain (Invitrogen, L34976) for 20 minutes at room temperature. Cells were fixed and permeabilized using FoxP3/Transcription Factor Staining Buffer Set (eBioscience, 00–5523–00; for BrdU-treated cells) or Click-iT fixative (for EdU-treated cells). DNA was denatured using 2N HCl + 0.5% (v/v) Triton X-100 for 30 minutes. […] Cells were then stained with BrdU antibody (clone 3D4, BioLegend, 364118, RRID:AB_2814318) for 1 hour. The EdU Click-iT reaction was performed using a Click-iT EdU Flow Cytometry Assay Kit (Invitrogen, C10418 or C10425). Prior to acquisition on the BD A3 Symphony or FACSCelesta, DNA was stained using FxCycle Violet ReadyFlow Reagent (BrdU) or FxCycle Far Red nucleic acid stain (Invitrogen, F10348) in combination with Rnase (Sigma R4642) (for EdU-treated cells). A minimum of 10,000 live cell events were recorded for each sample and data was analyzed using Flow Jo (Tree Star, RRID:SCR_008520).

[2] = test system: MMTV-rtTA/tetO-HER2 tumors; assay: Transgenic mammary tumor growth; assay type: in vivo, mice
Description: (§1) PDX models were performed by Crown Biosciences (OV5398, GA0103, and GA0114) or XenoSTART (ST4316B). Tumor fragments from stock mice were harvested and implanted subcutaneously into the flank of NOD/SCID mice (OV5398, RRID:IMSR_JAX:001303), BALB/c nude mice (GA0103 and GA0114, RRID:IMSR_RJ:BALB-C-NUDE), or athymic nude mice (Crl:NU(NCr)-Foxn1nu, RRID:IMSR_CRL:490) (ST4316B). For CDX models, female athymic nude mice (Crl:NU(NCr)-Foxn1nu, RRID:IMSR_CRL:490) were inoculated with 1 × 10^7 50% Cultrex OVCAR3 cells in the flank. Experiments performed using MMTV-rtTA/tetO-HER2 mice were performed at the Peter MacCallum Cancer Centre. Tumor formation was induced and sustained in female mice with doxycycline as previously described ([33]). Randomization and treatment in all models began when median tumor volume reached a maximum of 300 mm^3.
Mice were treated via oral gavage. INX-315 was prepared weekly in 100% PEG400; abemaciclib was prepared as previously described ([33]) and ribociclib (Selleckchem, S7440) was prepared weekly in 0.5% methyl cellulose. To generate abemaciclib-resistant MMTV-rtTA/tetO-HER2 tumors, mice were treated continuously with abemaciclib at a dose of 75 mg/kg until tumors resumed growth as described in text. […]

[3] = test system: palbociclib-resistant MCF7 cells; assay: CellTiter Glo viability assay; assay type: cell-based; conditions: Homo sapiens, MCF7, Supp Fig S9B, CDK4/6 inhibitor monotherapy; read-out: IC50
Description: (§2) An exception to this is MCF7PDRCl5-1 cells which were first cultured for 5 days without palbociclib then plated as described. MCF7PDRCl5-1 cells were treated with either a dose curve of the indicated CDK4/6i or a dose curve of INX-315 + 1 µmol/L of the indicated CDK4/6i. Cell viability was determined using the CellTiter-Glo assay (Promega, G9241) following manufacturer's instructions. Plates were processed on either BioTek Synergy2 multi-mode (Agilent) or ClarioSTAR (BMG Labtech) plate readers. T47D and MCF7 cells were seeded into […] plates using BioTek 406 (Aglient) and treated with a ten-point dose concentration from 10 µmol/L to 0.3 nmol/L of INX-315 for 2× doubling times. Plates were fixed with 4% PFA and stained with Rhodamine-Phalloidin (Bio-Trend, 00027) and DAPI (5 mg/mL, Invitrogen, catalog no. D1306). Plates were imaged using CellInsight CX7 LZR and DAPI-positive cells were counted using Thermo Fisher Scientific HCS Studio Cell Analysis Software.

ST4316B PDX = assay: PDX tumor growth; assay type: in vivo, mice; conditions: monotherapy; ribociclib 50 mg/kg per day
Description: as §1
Mice were treated via oral gavage. INX-315 was prepared weekly in 100% PEG400; abemaciclib was prepared as previously described ([33]) and ribociclib (Selleckchem, S7440) was prepared weekly in 0.5% methyl cellulose. To generate abemaciclib-resistant MMTV-rtTA/tetO-HER2 tumors, mice were treated continuously with abemaciclib at a dose of 75 mg/kg until tumors resumed growth as described in text. At this point and in all other MMTV-rtTA/tetO-HER2 mice experiments, mice were randomized into treatment groups and abemaciclib was administered to indicated groups at a dose of 50 mg/kg. In all MMTV-rtTA/tetO-HER2 mice experiments, INX-315 was administered at a dose of 50 mg/kg twice daily. For PDX model ST4316B, ribociclib was administered at 50 mg/kg per day.

[4] = test system: five cell lines with CCNE1 amplification (ovarian cancer); assay: CellTiter Glo viability assay; assay type: cell-based; conditions: six days
Hs68 = assay: CellTiter Glo viability assay; assay type: cell-based; conditions: benign human fibroblast cell line Hs68
Description: as §2

MKN1 = assay: CellTiter Glo viability assay; assay type: cell-based; conditions: 6 days
Description: as §2

| Compound | cells in S-phase [1] [%] | tumors with tumor regression (>25% reduction in tumor volume) ([2]; abemaciclib monotherapy, 163 of 183 tumors) [%] | regressing tumors that had resumed growth (acquired resistance) ([2]; by day 35 of abemaciclib treatment, 142 of 163) [%] | IC50 [3] [µM] | tumor growth (ST4316B PDX) | sensitivity of CCNE1-amplified lines [4] | IC50 (Hs68) [µM] | sensitivity of MKN1 (MKN1) |
| --- | --- | --- | --- | --- | --- | --- | --- | --- |
| CCN1CCN(Cc2ccc(Nc3ncc(F)c(-c4cc(F)c5nc(C)n(C(C)C)c5c4)n3)nc2)CC1 [abemaciclib] | < 1 | 89 | 87 | 5.71 |  |  |  |  |
| CN(C)C(=O)c1cc2cnc(Nc3ccc(N4CCNCC4)cn3)nc2n1C1CCCC1 [ribociclib, reference compound] |  |  |  |  | slowed tumor growth modestly |  |  |  |
| CC(=O)c1c(C)c2cnc(Nc3ccc(N4CCNCC4)cn3)nc2n(C2CCCC2)c1=O [palbociclib, reference compound] |  |  |  | > 10 |  | not sensitive | 0.026 | insensitive |
